According to patent EP4745135A1 (Gluetacs Therapeutics (Shanghai) Co., Ltd., priority 2023, dated 2025):

Columns and labels:
[1] = tested on: Human multiple myeloma cell (MM.1S); assay: Tumor cell proliferation inhibition (CellTiter-Meiluncell luminescent cell viability assay); details: for inhibition at 0.01 µM / inhibition at 0.5 µM: Homo sapiens, MM1.S, 96 h; for inhibition at 0.01 µM: read-out: Inhibition Rate at 10 nM (%); for inhibition at 0.5 µM: read-out: Inhibition Rate at 500 nM (%)
[2] = target: T1, IKZF1 (Homo sapiens, UniProt Q13422+Q96SW2); assay: Western blot, degradation of substrate protein in hPBMCs; assay type: cell-based
T1 construct: effects of the compounds of the present disclosure on the expression of target proteins in cells; endogenous in cells; host or cells: human PBMCs (Milecell Biotechnologies)
T1 sequence (Q13422 whole entry): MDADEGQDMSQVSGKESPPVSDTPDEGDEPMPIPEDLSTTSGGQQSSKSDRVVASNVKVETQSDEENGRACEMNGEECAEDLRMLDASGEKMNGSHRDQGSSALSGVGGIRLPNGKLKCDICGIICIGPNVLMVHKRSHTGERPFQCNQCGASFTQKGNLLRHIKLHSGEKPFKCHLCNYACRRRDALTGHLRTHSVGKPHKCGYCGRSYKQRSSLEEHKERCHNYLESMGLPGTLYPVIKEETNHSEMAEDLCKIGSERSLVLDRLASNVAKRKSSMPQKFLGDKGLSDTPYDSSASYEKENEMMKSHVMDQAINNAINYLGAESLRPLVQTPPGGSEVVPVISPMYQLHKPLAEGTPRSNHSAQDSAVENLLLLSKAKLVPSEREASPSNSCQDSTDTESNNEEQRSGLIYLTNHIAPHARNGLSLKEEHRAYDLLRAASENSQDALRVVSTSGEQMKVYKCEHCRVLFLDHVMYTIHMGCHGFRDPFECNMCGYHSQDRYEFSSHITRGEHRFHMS
T1 sequence (Q96SW2 whole entry): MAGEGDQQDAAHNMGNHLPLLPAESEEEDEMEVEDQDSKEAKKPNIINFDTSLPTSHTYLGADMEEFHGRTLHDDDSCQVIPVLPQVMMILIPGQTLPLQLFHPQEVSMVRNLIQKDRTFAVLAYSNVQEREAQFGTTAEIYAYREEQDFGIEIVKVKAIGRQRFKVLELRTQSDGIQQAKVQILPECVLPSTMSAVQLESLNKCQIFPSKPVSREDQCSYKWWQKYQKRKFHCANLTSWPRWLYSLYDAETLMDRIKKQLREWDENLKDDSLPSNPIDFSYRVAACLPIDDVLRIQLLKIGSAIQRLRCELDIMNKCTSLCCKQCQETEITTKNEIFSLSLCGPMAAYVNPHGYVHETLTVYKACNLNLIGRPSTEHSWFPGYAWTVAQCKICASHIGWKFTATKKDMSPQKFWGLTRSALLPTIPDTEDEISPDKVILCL
T1 sequence (Q16531 whole entry partner): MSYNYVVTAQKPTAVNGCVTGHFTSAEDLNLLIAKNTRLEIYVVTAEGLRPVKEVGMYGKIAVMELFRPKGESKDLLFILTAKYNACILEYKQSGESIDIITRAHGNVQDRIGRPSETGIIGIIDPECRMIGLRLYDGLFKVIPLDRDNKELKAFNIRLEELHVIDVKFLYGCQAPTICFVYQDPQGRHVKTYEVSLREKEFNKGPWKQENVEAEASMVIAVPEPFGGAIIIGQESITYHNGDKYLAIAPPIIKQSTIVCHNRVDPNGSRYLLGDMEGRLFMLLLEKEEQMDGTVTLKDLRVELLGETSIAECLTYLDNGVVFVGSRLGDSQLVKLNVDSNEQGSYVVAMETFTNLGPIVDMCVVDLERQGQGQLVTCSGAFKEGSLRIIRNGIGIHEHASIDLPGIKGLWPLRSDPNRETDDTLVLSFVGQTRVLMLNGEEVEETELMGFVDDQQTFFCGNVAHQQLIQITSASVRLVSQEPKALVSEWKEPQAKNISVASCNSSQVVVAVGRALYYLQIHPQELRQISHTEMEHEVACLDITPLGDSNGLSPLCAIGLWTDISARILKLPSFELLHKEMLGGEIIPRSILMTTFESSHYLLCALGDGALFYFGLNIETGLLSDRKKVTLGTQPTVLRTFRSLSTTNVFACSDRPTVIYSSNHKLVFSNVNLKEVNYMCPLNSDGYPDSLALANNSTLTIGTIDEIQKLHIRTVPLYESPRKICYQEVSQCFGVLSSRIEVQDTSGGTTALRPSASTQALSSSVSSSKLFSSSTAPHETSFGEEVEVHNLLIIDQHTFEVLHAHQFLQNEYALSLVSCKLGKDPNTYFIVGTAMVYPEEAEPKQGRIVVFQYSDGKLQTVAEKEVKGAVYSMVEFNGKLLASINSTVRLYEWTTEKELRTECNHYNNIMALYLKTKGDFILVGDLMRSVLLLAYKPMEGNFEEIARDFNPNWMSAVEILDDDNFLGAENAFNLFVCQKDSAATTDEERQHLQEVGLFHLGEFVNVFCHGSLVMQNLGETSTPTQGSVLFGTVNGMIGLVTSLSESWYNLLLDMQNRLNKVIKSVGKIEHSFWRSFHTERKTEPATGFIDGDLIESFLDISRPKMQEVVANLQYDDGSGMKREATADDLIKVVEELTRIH

[3] = target: T2, WEE1 (Homo sapiens, UniProt P30291+Q96SW2); assay: as above; assay type: cell-based
T2 construct: effects of the compounds of the present disclosure on the expression of target proteins in cells; endogenous in cells; host or cells: human PBMCs (Milecell Biotechnologies)
T2 sequence (P30291 whole entry): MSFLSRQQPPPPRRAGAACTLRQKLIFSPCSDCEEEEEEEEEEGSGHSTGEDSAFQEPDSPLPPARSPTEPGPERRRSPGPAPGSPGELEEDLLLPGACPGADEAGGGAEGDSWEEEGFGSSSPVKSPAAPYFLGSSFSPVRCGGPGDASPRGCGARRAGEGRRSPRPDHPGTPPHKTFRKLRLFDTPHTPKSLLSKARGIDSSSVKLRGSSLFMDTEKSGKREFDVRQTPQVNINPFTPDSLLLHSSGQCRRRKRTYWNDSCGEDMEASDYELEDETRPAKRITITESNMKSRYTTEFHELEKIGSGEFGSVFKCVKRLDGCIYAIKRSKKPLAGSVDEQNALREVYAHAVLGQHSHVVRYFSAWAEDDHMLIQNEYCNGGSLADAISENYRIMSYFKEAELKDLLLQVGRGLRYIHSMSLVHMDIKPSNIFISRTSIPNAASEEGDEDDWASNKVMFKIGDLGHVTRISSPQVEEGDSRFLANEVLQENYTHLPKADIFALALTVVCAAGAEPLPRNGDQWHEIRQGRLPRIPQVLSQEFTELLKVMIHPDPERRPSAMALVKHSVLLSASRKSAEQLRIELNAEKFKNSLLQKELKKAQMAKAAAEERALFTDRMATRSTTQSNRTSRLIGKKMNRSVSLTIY
T2 sequence (Q96SW2 whole entry): as the sequence (Q96SW2 whole entry) above
T2 sequence (Q16531 whole entry partner): as the sequence (Q16531 whole entry partner) above

[4] = target: T3, IKZF2 (Homo sapiens, UniProt Q96SW2+Q9UKS7); assay: as above; assay type: cell-based
T3 construct: effects of the compounds of the present disclosure on the expression of target proteins in cells; endogenous in cells; host or cells: human PBMCs (Milecell Biotechnologies)
T3 sequence (Q9UKS7 whole entry): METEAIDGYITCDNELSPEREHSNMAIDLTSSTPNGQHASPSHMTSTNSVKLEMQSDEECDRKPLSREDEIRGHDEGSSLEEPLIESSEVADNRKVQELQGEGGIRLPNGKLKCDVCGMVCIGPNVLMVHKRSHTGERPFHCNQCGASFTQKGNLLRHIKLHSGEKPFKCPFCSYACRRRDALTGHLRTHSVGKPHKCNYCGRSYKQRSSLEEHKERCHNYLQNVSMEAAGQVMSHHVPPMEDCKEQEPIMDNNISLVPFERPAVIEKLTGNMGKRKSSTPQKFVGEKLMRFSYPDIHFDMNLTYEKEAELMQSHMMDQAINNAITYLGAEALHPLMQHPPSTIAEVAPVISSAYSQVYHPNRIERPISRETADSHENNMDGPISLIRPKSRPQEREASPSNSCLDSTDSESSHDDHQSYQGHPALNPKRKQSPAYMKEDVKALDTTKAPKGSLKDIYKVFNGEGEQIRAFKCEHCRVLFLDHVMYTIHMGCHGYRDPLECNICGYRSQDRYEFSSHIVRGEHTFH
T3 sequence (Q96SW2 whole entry): as the sequence (Q96SW2 whole entry) above
T3 sequence (Q16531 whole entry partner): as the sequence (Q16531 whole entry partner) above

[5] = target: T4, IKZF3 (Homo sapiens, UniProt Q96SW2+Q9UKT9); assay: as above; assay type: cell-based
T4 construct: effects of the compounds of the present disclosure on the expression of target proteins in cells; endogenous in cells; host or cells: human PBMCs (Milecell Biotechnologies)
T4 sequence (Q9UKT9 whole entry): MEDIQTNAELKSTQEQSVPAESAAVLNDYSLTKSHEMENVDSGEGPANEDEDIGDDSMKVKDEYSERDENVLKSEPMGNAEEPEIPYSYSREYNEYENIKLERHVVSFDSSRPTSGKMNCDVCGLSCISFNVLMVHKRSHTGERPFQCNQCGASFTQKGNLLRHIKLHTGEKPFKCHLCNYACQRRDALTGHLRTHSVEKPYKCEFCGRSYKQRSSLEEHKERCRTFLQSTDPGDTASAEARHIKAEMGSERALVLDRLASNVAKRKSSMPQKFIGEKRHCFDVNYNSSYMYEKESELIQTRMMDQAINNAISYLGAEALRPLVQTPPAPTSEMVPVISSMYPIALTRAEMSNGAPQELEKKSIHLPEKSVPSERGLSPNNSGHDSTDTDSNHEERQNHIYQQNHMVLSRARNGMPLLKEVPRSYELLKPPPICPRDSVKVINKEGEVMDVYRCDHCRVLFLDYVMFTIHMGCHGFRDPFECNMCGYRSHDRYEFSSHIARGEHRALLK
T4 sequence (Q96SW2 whole entry): as the sequence (Q96SW2 whole entry) above
T4 sequence (Q16531 whole entry partner): as the sequence (Q16531 whole entry partner) above

[6] = target: T5, CK1α (Homo sapiens, UniProt P48729+Q96SW2); assay: as above; assay type: cell-based
T5 construct: effects of the compounds of the present disclosure on the expression of target proteins in cells; endogenous in cells; host or cells: human PBMCs (Milecell Biotechnologies)
T5 sequence (P48729 whole entry): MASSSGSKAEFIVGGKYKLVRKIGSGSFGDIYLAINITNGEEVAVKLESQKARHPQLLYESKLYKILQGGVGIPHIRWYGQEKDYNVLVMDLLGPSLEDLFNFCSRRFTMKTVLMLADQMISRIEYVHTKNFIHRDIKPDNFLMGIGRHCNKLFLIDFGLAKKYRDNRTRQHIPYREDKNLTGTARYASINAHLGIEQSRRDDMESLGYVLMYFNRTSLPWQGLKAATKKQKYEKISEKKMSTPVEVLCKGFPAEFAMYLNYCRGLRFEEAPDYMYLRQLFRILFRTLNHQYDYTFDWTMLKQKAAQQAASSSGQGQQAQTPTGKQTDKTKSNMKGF
T5 sequence (Q96SW2 whole entry): as the sequence (Q96SW2 whole entry) above
T5 sequence (Q16531 whole entry partner): as the sequence (Q16531 whole entry partner) above

[7] = tested on: Human breast cancer cell (MCF-7); assay: Tumor cell proliferation inhibition (CellTiter-Meiluncell luminescent cell viability assay); details: MCF7, 96 h; for inhibition at 0.01 µM: read-out: Inhibition Rate at 10 nM (%); for inhibition at 0.5 µM: read-out: Inhibition Rate at 500 nM (%)
[8] = target: T6, human Cereblon WT GST-tagged protein (Homo sapiens, UniProt Q96SW2); assay: CRBN-binding affinity, HTRF (CEREBLON BINDING kit); details: for inhibition at 0.5 µM: read-out: Inhibition Rate at 0.5 µM (%); for inhibition at 2 µM: read-out: Inhibition Rate at 2 µM (%)
T6 construct: purchased CISBIO 64BDCRBNPEH
T6 sequence (Q96SW2 whole entry): as the sequence (Q96SW2 whole entry) above

[9] = tested on: Human myeloid monocytic leukemia cell (MV-4-11); assay: Tumor cell proliferation inhibition (CellTiter-Meiluncell luminescent cell viability assay); details: MV4-11, 96 h; for inhibition at 0.01 µM: read-out: Inhibition Rate at 10 nM (%); for inhibition at 0.5 µM: read-out: Inhibition Rate at 500 nM (%)
[10] = tested on: Human acute T lymphocytic leukemia cell (Molt4); assay: as above; details: MOLT-4, 96 h; for inhibition at 0.01 µM: read-out: Inhibition Rate at 10 nM (%); for inhibition at 0.5 µM: read-out: Inhibition Rate at 500 nM (%)
[11] = tested on: Human acute myeloid leukemia cell line: Kasumi-1; assay: as above; details: Kasumi 1, 96 h; for inhibition at 0.01 µM: read-out: Inhibition Rate at 10 nM (%); for inhibition at 0.5 µM: read-out: Inhibition Rate at 500 nM (%)
[12] = tested on: Human multiple myeloma peripheral blood B lymphocyte cell (RPMI-8226); assay: as above; details: RPMI-8226, 96 h; for inhibition at 0.01 µM: read-out: Inhibition Rate at 10 nM (%); for inhibition at 0.5 µM: read-out: Inhibition Rate at 500 nM (%)
Description: The tumor cells used herein were cultured in a cell culture medium listed in table 2 at 37°C in an incubator with 5% CO2. Prior to experimentation, all cell lines used were correctly identified by STR profiling, and tested negative for mycoplasma contamination using a mycoplasma detection kit through routine screenings.
The IC50 values of the compounds of the present disclosure (including the compounds in Table 1 and Examples) were determined using the CellTiter-Meiluncell Luminescent Cell Viability Assay Kit from Dalian Meilun Biotech Co., Ltd. The detailed procedure is as follows: Tumor cells were seeded in 96-well cell culture plates at the densities specified in Table 3. On the following day, the test compounds of the present disclosure were subjected to serial dilution. The dilution can be performed according to one of the following two methods: • (1) The first dilution method: The test compounds of the present disclosure (including the compounds in Table 1 and Examples) were subjected to 5-fold serial dilutions starting from a highest concentration of 2000 µM, resulting in a total of 9 concentrations from high to low (2000, 400, 80, 16, 3.2, 0.64, 0.128, 0.0256, 0.00512 µM). Subsequently, 0.5 µL of the test compound dilution was transferred into the 96-well plate containing the cells, with each well containing 100 µL of cell culture medium. […] Into the 96-well plate, the diluted test compounds and corresponding detection reagents were added, resulting in final test compound concentrations of 500 nM and 10 nM, respectively. The experimental procedure is described below using the diluted 2 µM test compound as an example.
0.5 µL of the aforementioned diluted compound of the present disclosure (including the compounds in Table 1 and Examples) was added to the seeded cells in 100 µL of medium, yielding a final test compound concentration of 10 nM. After the cells were treated with the compounds of the present disclosure for a specified period, the cell viability assay reagent was added to the culture medium according to the kit's instructions to determine cell viability. […] All controls were treated using the same procedure as the compounds of the present disclosure. The growth inhibition curves for the compounds of the present disclosure were plotted using Prism GraphPad software, and the IC50 values were calculated therefrom.

[13] = tested on: Human T cell acute lymphoblastic leukemia cell (CCRF-CEM); assay: as above; details: 96 h; for inhibition at 0.01 µM: read-out: Inhibition Rate at 10 nM (%); for inhibition at 0.5 µM: read-out: Inhibition Rate at 500 nM (%)
[14] = tested on: Human T lymphocytic leukemia cell line: Jurkat; assay: as above; details: 96 h; for inhibition at 0.01 µM: read-out: Inhibition Rate at 10 nM (%); for inhibition at 0.5 µM: read-out: Inhibition Rate at 500 nM (%)
[15] = tested on: GSPT1; assay: Western blot, degradation of substrate protein in hPBMCs; assay type: cell-based, Human
[16] = tested on: Human malignant melanoma cell line: A375; assay: Tumor cell proliferation inhibition (CellTiter-Meiluncell luminescent cell viability assay); details: A-375, 96 h
[17] = 24 hours treatment, compounds at 50 nM and 500 nM (concentration behind the class not stated)
[18] = Western blot, 24 hours of compound treatment, compounds tested at 50 nM and 500 nM (concentration for the table not stated)

Row | Structure (SMILES) | inhibition at 0.01 µM [1] [%] | IKZF 1 substrate protein remaining % [2, 17] | Wee1 substrate protein remaining % [3, 17] | IKZF2 substrate protein remaining % [4, 17] | IKZF3 substrate protein remaining % [5, 17] | CK1α substrate protein remaining % [6, 17] | inhibition at 0.01 µM [7] [%] | inhibition at 0.5 µM [7] [%] | inhibition at 0.5 µM [8] [%] | inhibition at 2 µM [8] [%] | inhibition at 0.01 µM [9] [%] | inhibition at 0.5 µM [9] [%] | inhibition at 0.01 µM [10] [%] | inhibition at 0.5 µM [10] [%] | inhibition at 0.01 µM [11] [%] | inhibition at 0.5 µM [11] [%] | inhibition at 0.01 µM [12] [%] | inhibition at 0.5 µM [12] [%] | inhibition at 0.01 µM [13] [%] | inhibition at 0.5 µM [13] [%] | also measured
1 | O=C1CCC(N2Cc3cc(CN4CC=C(c5ccsc5)CC4)ccc3C2=S)C(=O)N1 (stereo not drawn) [GT-08172, 3-(5-((4-(thiophen-3-yl)-3,6-dihydropyridin-1(2H)-yl)methyl)-1-thioxoisoindolin-2-yl)piperidine-2,6-dione] | 40 to 50 | A (0% ≤ substrate protein remaining % ≤ 80%) | A (0% ≤ substrate protein remaining % ≤ 80%) | A (0% ≤ substrate protein remaining % ≤ 80%) | A (0% ≤ substrate protein remaining % ≤ 80%) | A (0% ≤ substrate protein remaining % ≤ 80%) | 50 to 60 | 70 to 80 | 80 to 100 | 80 to 100 | 60 to 80 | 80 to 100 | 60 to 70 | 80 to 100 | 20 to 30 | 80 to 100 | 20 to 30 | 80 to 100 | 60 to 70 | 80 to 100 | Inhibition Rate at 500 nM (%) ([1]; MM.1S, 500 nM, 96 hours): la10; inhibition at 0.01 µM [14]: 50 to 60%; inhibition at 0.5 µM [14]: 80 to 100%; GSPT1 substrate protein remaining % [15, 17]: A (0% ≤ substrate protein remaining % ≤ 80%)
2 | O=C1CCC(N2Cc3cc(CN4CC=C(c5cccc(F)c5Cl)CC4)ccc3C2=S)C(=O)N1 (stereo not drawn) [GT-08206, 3-(5-((4-(2-chloro-3-fluorophenyl)-3,6-dihydropyridin-1(2H)-yl)methyl)-1-thioxoisoindolin-2-yl)piperidine-2,6-dione] | 50 to 60 |  |  |  |  |  | 0 to 5 | 80 to 100 | 40 to 53 | 80 to 100 | 80 to 100 | 80 to 100 | 70 to 80 | 80 to 100 | 60 to 70 | 80 to 100 | 80 to 100 | 80 to 100 | 80 to 100 | 80 to 100 | inhibition at 0.5 µM [1]: 80 to 100%; IKZF 1 substrate protein remaining % [2, 18]: A (0% ≤ substrate protein remaining % ≤ 80%); Wee1 substrate protein remaining % [3, 18]: A (0% ≤ substrate protein remaining % ≤ 80%); IKZF2 substrate protein remaining % [4, 18]: A (0% ≤ substrate protein remaining % ≤ 80%); IKZF3 substrate protein remaining % [5, 18]: A (0% ≤ substrate protein remaining % ≤ 80%); CK1α substrate protein remaining % [6, 18]: A (0% ≤ substrate protein remaining % ≤ 80%); inhibition at 0.01 µM [14]: 50 to 60%; inhibition at 0.5 µM [14]: 80 to 100%; GSPT1 substrate protein remaining % [15, 18]: A (0% ≤ substrate protein remaining % ≤ 80%)
3 | Cc1cc(C2=CCN(Cc3ccc4c(c3)CN(C3CCC(=O)NC3=O)C4=S)CC2)cs1 (stereo not drawn) [GT-08327, 3-(5-((4-(5-methylthiophen-3-yl)-3,6-dihydropyridin-1(2H)-yl)methyl)-1-thioxoisoindolin-2-yl)piperidine-2,6-dione] | 40 to 50 | A (0% ≤ substrate protein remaining % ≤ 80%) | A (0% ≤ substrate protein remaining % ≤ 80%) | A (0% ≤ substrate protein remaining % ≤ 80%) | A (0% ≤ substrate protein remaining % ≤ 80%) | A (0% ≤ substrate protein remaining % ≤ 80%) | 0 to 5 | 70 to 80 | 53 to 60 | 80 to 100 | 40 to 60 | 80 to 100 | 10 to 20 | 80 to 100 | 30 to 40 | 80 to 100 | 10 to 20 | 80 to 100 | 30 to 40 | 80 to 100 | inhibition at 0.5 µM [1]: 80 to 100%; inhibition at 0.01 µM [14]: 20 to 30%; inhibition at 0.5 µM [14]: 80 to 100%; GSPT1 substrate protein remaining % [15, 17]: A (0% ≤ substrate protein remaining % ≤ 80%)
4 | O=C1CCC(N2Cc3cc(CN4CCC(c5cccc(F)c5Cl)CC4)ccc3C2=S)C(=O)N1 (stereo not drawn) [GT-08330, 3-(5-((4-(2-chloro-3-fluorophenyl)piperidin-1-yl)methyl)-1-thioxoisoindolin-2-yl)piperidine-2,6-dione] | 20 to 30 | A (0% ≤ substrate protein remaining % ≤ 80%) | A (0% ≤ substrate protein remaining % ≤ 80%) | A (0% ≤ substrate protein remaining % ≤ 80%) | A (0% ≤ substrate protein remaining % ≤ 80%) | A (0% ≤ substrate protein remaining % ≤ 80%) | 10 to 20 | 50 to 60 | 40 to 53 | 60 to 80 | 10 to 18 | 80 to 100 | -5 to 0 | 80 to 100 | 5 to 10 | 80 to 100 | 10 to 20 | 70 to 80 | 5 to 10 | 80 to 100 | inhibition at 0.5 µM [1]: 80 to 100%; inhibition at 0.01 µM [14]: -5 to 0%; inhibition at 0.5 µM [14]: 70 to 80%; GSPT1 substrate protein remaining % [15, 17]: A (0% ≤ substrate protein remaining % ≤ 80%)
5 | O=C1CCC(N2Cc3cc(CN4CCN(c5nc(Cl)nc6ccsc56)CC4)ccc3C2=S)C(=O)N1 (stereo not drawn) [GT-09331, 3-(5-((4-(2-chlorothieno[3,2-d]pyrimidin-4-yl)piperazin-1-yl)methyl)-1-thioxoisoindolin-2-yl)piperidine-2,6-dione] |  | B (80%< substrate protein remaining %≤ 100%) | B (80%< substrate protein remaining %≤ 100%) | B (80%< substrate protein remaining %≤ 100%) | B (80%< substrate protein remaining %≤ 100%) | B (80%< substrate protein remaining %≤ 100%) | 20 to 30 | 40 to 50 | 80 to 100 | 80 to 100 |  |  |  |  |  |  |  |  |  |  | inhibition at 0.01 µM ([16]; read-out: Inhibition Rate at 10 nM (%)): 30 to 40%; inhibition at 0.5 µM ([16]; read-out: Inhibition Rate at 500 nM (%)): 50 to 60%; GSPT1 substrate protein remaining % [15, 17]: A (0% ≤ substrate protein remaining % ≤ 80%)
